{
  "source": "the SangsterLogP compilation",
  "data": [
    {"test": "not given", "values": [
      {"molecule": "CC(=O)Oc1ccccc1C(=O)Nc1ncc([N+](=O)[O-])s1", "logP": 2.41},
      {"molecule": "O=C(Nc1ncc([N+](=O)[O-])s1)c1c(F)cccc1Cl", "logP": 3},
      {"molecule": "O=C(Nc1ncc([N+](=O)[O-])s1)c1c(F)cccc1F", "logP": 2.44},
      {"molecule": "O=C(Nc1ncc([N+](=O)[O-])s1)c1cc(Cl)ccc1Cl", "logP": 3.57},
      {"molecule": "O=C(Nc1ncc([N+](=O)[O-])s1)c1ccccc1F", "logP": 2.71},
      {"molecule": "O=C(Nc1ncc([N+](=O)[O-])s1)c1ccc(F)cc1", "logP": 3.12}
    ]},
    {"test": "method code SF-AS, from DOI: 10.1002/(sici)1521-3838(199801)17:01<01::aid-qsar1>3.0.co;2-a", "values": [
      {"molecule": "O=C(Nc1ncc([N+](=O)[O-])s1)c1ccc(Cl)c(Cl)c1", "logP": 4.14},
      {"molecule": "O=C(Nc1ncc([N+](=O)[O-])s1)c1ccc(Cl)cc1Cl", "logP": 3.62},
      {"molecule": "O=C(Nc1ncc([N+](=O)[O-])s1)c1ccccc1", "logP": 2.97},
      {"molecule": "O=C(Nc1ncc([N+](=O)[O-])s1)c1ccccc1Br", "logP": 3.09},
      {"molecule": "O=C(Nc1ncc([N+](=O)[O-])s1)c1cc(Br)ccc1Br", "logP": 3.75},
      {"molecule": "O=C(Nc1ncc([N+](=O)[O-])s1)c1cccc(Br)c1", "logP": 3.8},
      {"molecule": "O=C(Nc1ncc([N+](=O)[O-])s1)c1ccc(Br)cc1", "logP": 3.58},
      {"molecule": "O=C(Nc1ncc([N+](=O)[O-])s1)c1cc(Cl)cc(Cl)c1", "logP": 4.14},
      {"molecule": "O=C(Nc1ncc([N+](=O)[O-])s1)c1cccc(Cl)c1", "logP": 3.61}
    ]}
  ]
}
